# Assay results: paper PMC7724566, “Prospects for Clinical Development of Stat5 Inhibitor IST5-002: High Transcriptomic Specificity in Prostate Cancer and Low Toxicity In Vivo” (Cancers, 2020)
# Legend:
# TYK2 = TYK2 (Homo sapiens, UniProt P29597); assay: Cell-based tyrosine phosphorylation of Jak kinases (IP/immunoblot); parameters: endogenous in cells; host or cells: DU145 and CWR22Pc; conditions: 6 µM, 6 h
# Source text: Figure 5 Both IST5 and IST5-M suppress dimerization of Stat5 with similar efficacies in prostate cancer cells. (A), IST5 and IST5-M inhibit equally potently dimerization of Stat5 in native-gel-based Stat5 dimerization assay. CWR22Rv1 cells were transfected with STAT5A-eYFP (Stat5 wild type), STAT5A-N642H-eYFP (constitutive activated Stat5 by N642H mutation, as a positive control) or STAT3-eYFP (Stat3 wild type, as a negative control) constructs for 3 days. CWR22Rv1 cells were serum-starved for 16 h, pretreated with vanadate (1 mM) for 2 h, followed by treatment with vehicle, IST5 and IST5-M (1 µM) for 6 h and stimulation with Prl (10 nM) for 1 h. Dimerization of Stat5 was analyzed by detection of the eYFP fluorescence of the native Coomassie gel. (B), IST5 and IST5-M inhibited cytokine-induced dimerization of Stat5 with high efficacy in PC cells. PC-3 cells were co-transfected with pCMV-3Flag-Stat5a, pCMV-3Myc-Stat5a, and pPrlR plasmids. Cells were serum-starved for 16 h, pretreated with IST5, IST5-M or vehicle at indicated concentrations for 2 h, followed by stimulation with Prl (10 nM) for 30 min. Anti-MYC mAb was utilized to immunoprecipitate the MYC-tagged Stat5a and blotted with anti-FLAG mAb or anti-MYC mAb, as indicated. […] (C), densitometric analyses of the Stat5 dimerization data based on co-immunoprecipitations and immunoblotting in (B). […] Prostate cancer cells were treated with IST5 (6 µM) or vehicle for 6 h. Jak1, Jak2, Jak3 and Tyk2 were immunoprecipitated and blotted with anti-phospho-tyrosine, Jak1, Jak2, Jak3 and Tyk2 antibodies. Whole cell lysates (WCL) were immunoblotted for actin. (E), differences in posttranslational modifications were detected between native and recombinant STAT5a using mass spectrometry. Native STAT5a from CWR22Rv1 cells and recombinant STAT5a from E. coli were gel-purified, digested using trypsin, and analyzed by bottom-up mass spectrometry. Native full-length STAT5a (blue) is show with recombinant STAT5A highlighted (red). Sites of acetylation and phosphorylation from the respective sources are noted including two previously published sites of phosphorylation (asterisk).
# Given that IST5 suppresses phosphorylation of Stat5 in PC cells, it is possible that IST5 inhibits the kinase(s) responsible for Stat5 phosphorylation and activation in PC cells. To evaluate if IST5 affects kinase activity in cancer cells, we tested kinase inhibitory activity of IST5 in two custom-tailored panels including 54 relevant kinases (Table 1), including Jak1, Jak2, Jak3, Tyk2, Abl1, Abl2, Lck, Fyn, Src and TrkB/C. In addition, we further tested if IST5 inhibits tyrosine phosphorylation of Jak1, Jak2, Jak3 or Tyk2 using a cell-based assay (Figure 5D), where phosphorylation of the kinase is indicative of enzymatic kinase activity. DU145 and CWR22Rv1 cells were treated with IST5 (6 µM) for 6 h followed by immunoprecipitation of Jak1, Jak2, Jak3 and Tyk2 and immunoblotting with anti-phospho-tyrosine antibody. […] Collectively, these findings indicate that the inhibitory effect of IST5 on Stat5 phosphorylation in cancer cells is not due to inhibition of Jak2 or other key kinases including Jak1, Jak3, Tyk2, Src, Lck, Fyn, TrkB/C, Abl1 or Abl2 (Table 1, Figure 5D).
# Cell pellets were solubilized in the lysis buffer (10 mM Tris-HCl (pH 7.6), 5 mM EDTA, 50 mM sodium chloride, 30 mM sodium pyrophosphate, 50 mM sodium fluoride, 1 mM sodium orthovanadate, 1% Triton X-100, 1 mM phenylmethylsulfonyl fluoride, 5 µg/mL aprotinin, 1 µg/mL pepstatin A and 2 µg/mL leupeptin), and protein concentrations of clarified cell lysates were determined by a simplified Bradford method (Bio-Rad, Hercules, CA, USA). The whole cell lysates were immunoprecipitated with polyclonal antibodies (Table S1) followed by incubation with protein A-Sepharose beads (GE Healthcare, Chicago, IL, USA). […]
# Stat5 = biological target: T1, Stat5 (Homo sapiens, UniProt P42229); assay: Native-gel-based Stat5 dimerization assay, CWR22Rv1 cells; format: cell-based; conditions: 1 µM, 6 h, Prl (10 nM) stimulated CWR22Rv1 cells, STAT5A-eYFP
# T1 construct: expressed in transfected cells; host or cells: CWR22Rv1
# Source text: Having established that IST5 and IST5-M both interrupt phosphorylation of Stat5, we next investigated the potency of IST5-M vs. IST5 in suppressing dimerization of Stat5 in PC cells. First, we performed a native Polyacrylamide Gel Electrophoresis (PAGE) based Stat5 dimerization assay established originally by Fahrenkamp et al., where CWR22Rv1 cells were transfected with STAT5A-eYFP (Stat5 wild type), STAT5A-N642H-eYFP (constitutive activated Stat5 by N642H mutation, as a positive control) or STAT3-eYFP (Stat3 wild type, as a negative control) constructs for 3 days (Figure 5A). CWR22Rv1 cells were starved for 16 h, pretreated with vanadate (1 mM) for 2 h, followed by treatment with vehicle, IST5 or IST5-M (1 µM) for 6 h and stimulation with Prl (10 nM) for 1 h.
# Figure 5 Both IST5 and IST5-M suppress dimerization of Stat5 with similar efficacies in prostate cancer cells. (A), IST5 and IST5-M inhibit equally potently dimerization of Stat5 in native-gel-based Stat5 dimerization assay. […] Dimerization of Stat5 was analyzed by detection of the eYFP fluorescence of the native Coomassie gel. […] (E), differences in posttranslational modifications were detected between native and recombinant STAT5a using mass spectrometry. Native STAT5a from CWR22Rv1 cells and recombinant STAT5a from E. coli were gel-purified, digested using trypsin, and analyzed by bottom-up mass spectrometry. […]
# Sequence of TYK2 (P29597 whole entry): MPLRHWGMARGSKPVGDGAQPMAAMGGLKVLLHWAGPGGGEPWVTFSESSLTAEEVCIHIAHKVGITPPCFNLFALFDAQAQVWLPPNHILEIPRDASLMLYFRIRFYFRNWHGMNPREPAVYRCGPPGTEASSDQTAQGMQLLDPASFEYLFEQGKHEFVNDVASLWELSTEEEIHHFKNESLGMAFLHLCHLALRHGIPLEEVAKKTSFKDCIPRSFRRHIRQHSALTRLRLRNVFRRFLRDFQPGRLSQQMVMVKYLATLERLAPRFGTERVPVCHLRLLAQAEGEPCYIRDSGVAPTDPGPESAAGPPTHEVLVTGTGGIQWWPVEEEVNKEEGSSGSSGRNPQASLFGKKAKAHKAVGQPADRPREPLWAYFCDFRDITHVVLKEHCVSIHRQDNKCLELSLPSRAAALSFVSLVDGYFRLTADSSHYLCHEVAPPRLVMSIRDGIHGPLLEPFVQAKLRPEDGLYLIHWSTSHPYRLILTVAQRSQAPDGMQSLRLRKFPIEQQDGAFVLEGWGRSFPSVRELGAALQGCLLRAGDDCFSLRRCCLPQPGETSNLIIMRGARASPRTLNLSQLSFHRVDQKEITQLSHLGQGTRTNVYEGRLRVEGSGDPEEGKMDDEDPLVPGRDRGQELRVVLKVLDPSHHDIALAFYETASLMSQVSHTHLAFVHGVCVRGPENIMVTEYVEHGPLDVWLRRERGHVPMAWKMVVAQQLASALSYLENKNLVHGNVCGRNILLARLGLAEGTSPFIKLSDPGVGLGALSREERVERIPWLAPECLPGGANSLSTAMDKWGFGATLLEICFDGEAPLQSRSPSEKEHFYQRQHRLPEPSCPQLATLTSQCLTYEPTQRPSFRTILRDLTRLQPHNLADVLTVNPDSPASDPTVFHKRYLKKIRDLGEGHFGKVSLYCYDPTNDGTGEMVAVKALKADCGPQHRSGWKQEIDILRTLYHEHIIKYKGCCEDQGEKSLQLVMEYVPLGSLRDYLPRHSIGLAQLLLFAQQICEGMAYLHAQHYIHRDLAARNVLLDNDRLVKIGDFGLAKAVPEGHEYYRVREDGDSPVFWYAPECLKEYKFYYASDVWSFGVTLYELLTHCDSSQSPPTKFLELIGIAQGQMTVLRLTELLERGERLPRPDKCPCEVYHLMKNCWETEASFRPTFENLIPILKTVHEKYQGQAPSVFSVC
# T1 sequence (P42229 whole entry, species assumed): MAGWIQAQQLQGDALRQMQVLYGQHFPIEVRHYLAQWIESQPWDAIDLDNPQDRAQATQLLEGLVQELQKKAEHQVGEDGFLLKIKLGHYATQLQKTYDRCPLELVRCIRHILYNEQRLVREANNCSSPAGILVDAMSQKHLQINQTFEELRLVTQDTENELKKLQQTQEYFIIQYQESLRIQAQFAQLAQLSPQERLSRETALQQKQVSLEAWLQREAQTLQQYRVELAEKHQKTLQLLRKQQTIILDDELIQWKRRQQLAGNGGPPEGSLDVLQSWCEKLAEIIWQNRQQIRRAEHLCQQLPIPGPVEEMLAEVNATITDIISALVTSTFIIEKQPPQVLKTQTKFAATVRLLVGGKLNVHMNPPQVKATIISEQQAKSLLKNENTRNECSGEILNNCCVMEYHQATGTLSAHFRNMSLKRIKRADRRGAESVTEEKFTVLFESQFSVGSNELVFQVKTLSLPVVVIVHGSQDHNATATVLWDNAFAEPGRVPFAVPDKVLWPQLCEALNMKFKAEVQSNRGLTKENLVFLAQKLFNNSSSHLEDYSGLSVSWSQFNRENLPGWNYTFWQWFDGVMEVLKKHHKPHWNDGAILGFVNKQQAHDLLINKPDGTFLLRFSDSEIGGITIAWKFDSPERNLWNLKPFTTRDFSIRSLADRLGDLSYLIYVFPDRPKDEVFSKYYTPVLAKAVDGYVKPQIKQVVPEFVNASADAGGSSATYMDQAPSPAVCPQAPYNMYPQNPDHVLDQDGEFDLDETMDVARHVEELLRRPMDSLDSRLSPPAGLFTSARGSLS
structure (smiles),measurement,setting,value
O=P(O)(O)OCC1OC(n2cnc3c(NCc4ccccc4)ncnc32)C(O)C1O (stereo not drawn) [IST5],phosphorylation of Tyk2,TYK2; CWR22Pc cells,did not alter
same,phosphorylation of Tyk2,TYK2; DU145 cells,did not alter
same,inhibition of Stat5 dimerization,Stat5,inhibited robustly
